Test results from patent US11236367B2, “Fatty acid decarboxylase and its uses” (COMMISSARIAT A L'ENERGIE ATOMIQUE ET AUX ENERGIES …, priority 2016, dated 2022).

Legend:
Format in all cases: biochemical, Chlorella variabilis NC64A
[1] = biological target: T1, alkane synthase activity of Chlorella homogenate (Chlorella variabilis, UniProt A0A248QE08); test: Alkane synthase activity assay on Chlorella homogenate and purification fractions (SPME, GC-MS); details: for effect of added co-factor on alkane synthase activity: added in different combinations to the solubilized microsomal fraction
T1 construct: Reaction mixtures contained 500 μL of each purification fraction; endogenous in cells; host or cells: Chlorella cells (homogenate, solubilized microsomal fraction, chromatography fractions)
Description: Enzymatic assays were performed in transparent glass vials sealed using caps with septum. Reaction mixtures contained 500 μL of each purification fraction, 200 μM of perdeuterated palmitic acid (10 mM stock solution in ethanol) and 45 nmol hexadecane as internal standard (4.5 mM stock solution in chloroform). Vials were agitated at 120 rpm overnight at 25° C. under a white light (intensity 120 μmol photons m^−2s^−1). Reaction was stopped by the addition of 10 μL NaOH 10 M through the septum using a syringe. Hydrocarbons produced were analyzed by incubating in the headspace of the vial a solid phase microextraction (SPME) fiber (DVB PDMS fused silica, 65 μm double-polar, Supelco) mounted on a holder. After 15 min incubation at room temperature the SPME fiber was immediately inserted into the injector of the GC-MS and desorbed at 250° C. GC-MS analysis was carried out as described below.

[2] = biological target: T2, Chlorella GMC oxidoreductase (Chlorella variabilis, UniProt A0A248QE08); test: Enzymatic assay with purified recombinant enzyme (GC-MS of products); details: for conversion of substrate by the enzyme (product formed): purified recombinant enzyme, white light
T2 construct: 6 His-tagged thioredoxin (N, cleaved yes); TEV protease-cleavage site (N, cleaved yes); made in house; host or cells: E. coli BL21-CodonPlus (DE3)-RIL
Description: (§1) All assays were performed in transparent glass vials sealed using caps with septum. Optimum pH was determined using a Teorell Stenhagen universal buffer (33 mM citric acid monohydrate, 33 mM phosphoric acid, 100 mM NaOH, 16.7 mM of boric acid, pH 8.5 adjusted with 1N HCl). Other assays were performed in 100 mM Tris HCl pH 8.5, 100 mM NaCl. Reaction mixtures (500 μL) typically contained 160 nM purified enzyme (stock ? solution 2.5 mg ml^−1) and 400 μM substrate (stock solution 10 mM in ethanol). In some assays, a lipase was used with the alkane synthase. In this case, substrate was a triacylglycerol. Generally, samples were shaken at 200 rpm during 15 min under LED-made white light at 2000 μmol ? photons m^−2s^−1. After the incubations, samples were heated at 95° C. during 15 min to stop the enzymatic reaction. Samples were cooled down and internal standard (hexadecane) was added (45 nmol from a 4.5 mM stock solution in chloroform). NaOH was then added to the reaction mixture (10 μL from a stock solution of 10 M) and samples were vortexed for 5 min. Then 250 μL of hexane was added and samples were vortexed for 5 min to extract alkanes and alkenes. The hexane phase was collected by centrifugation and analyzed by GC-MS-FID. The analysis was done by direct injection of 100 μl of the headspace into a GC-MS. In FIG. 11 activity on 1-^13C-palmitate was monitored by release of ^13CO2 using membrane inlet mass spectrometry. Illuminations were provided by CBT-120 LEDs (Luminous, Billerica) either blue (peak at 460 nm, 25 nm FWHM), or red (peak at 635 nm, 15 nm FWHM) at an intensity of 850 μmol photons m^−2 s^−1.

[3] = biological target: T2, Chlorella GMC oxidoreductase; test: 13CO2 release from 1-13C-palmitate with the purified enzyme (membrane inlet mass spectrometry); details: palmitic acid labelled with 13C on the carboxylic group
Description: as §1, with “Then 250 μL of hexane was added and samples were vortexed for 5 min to extract alkanes and alkenes.” left out, “The analysis was done by direct injection of 100 μl of the headspace into a GC-MS.” left out, “Illuminations were provided by CBT-120 LEDs (Luminous, Billerica) either blue (peak at 460 nm, 25 nm FWHM), or red (peak at 635 nm, 15 nm FWHM) at an intensity of 850 μmol photons m^−2 s^−1.” left out
Online measurements of ^12CO2 (m/z=44) and ^13CO2 (m/z=45) were monitored using mass spectrometry (model Prima B, Thermo Scientific). […]

T1 sequence (A0A248QE08 61-654 limits assumed): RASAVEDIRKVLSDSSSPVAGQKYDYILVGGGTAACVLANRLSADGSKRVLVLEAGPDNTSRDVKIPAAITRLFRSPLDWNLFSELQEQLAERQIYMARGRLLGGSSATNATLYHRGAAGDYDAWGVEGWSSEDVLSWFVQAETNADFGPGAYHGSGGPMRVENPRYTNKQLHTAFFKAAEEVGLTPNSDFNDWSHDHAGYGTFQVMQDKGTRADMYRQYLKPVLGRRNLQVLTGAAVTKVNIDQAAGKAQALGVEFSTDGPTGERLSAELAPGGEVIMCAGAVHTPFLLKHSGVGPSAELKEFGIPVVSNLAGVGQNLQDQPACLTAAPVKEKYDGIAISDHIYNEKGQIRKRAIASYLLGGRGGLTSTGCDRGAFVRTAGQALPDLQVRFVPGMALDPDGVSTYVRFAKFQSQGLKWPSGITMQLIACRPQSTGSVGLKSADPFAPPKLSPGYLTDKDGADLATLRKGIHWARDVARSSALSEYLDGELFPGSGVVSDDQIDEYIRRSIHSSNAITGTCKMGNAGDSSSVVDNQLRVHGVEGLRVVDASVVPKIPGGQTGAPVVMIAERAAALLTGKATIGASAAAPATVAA
T2 sequence (A0A248QE08 62-654): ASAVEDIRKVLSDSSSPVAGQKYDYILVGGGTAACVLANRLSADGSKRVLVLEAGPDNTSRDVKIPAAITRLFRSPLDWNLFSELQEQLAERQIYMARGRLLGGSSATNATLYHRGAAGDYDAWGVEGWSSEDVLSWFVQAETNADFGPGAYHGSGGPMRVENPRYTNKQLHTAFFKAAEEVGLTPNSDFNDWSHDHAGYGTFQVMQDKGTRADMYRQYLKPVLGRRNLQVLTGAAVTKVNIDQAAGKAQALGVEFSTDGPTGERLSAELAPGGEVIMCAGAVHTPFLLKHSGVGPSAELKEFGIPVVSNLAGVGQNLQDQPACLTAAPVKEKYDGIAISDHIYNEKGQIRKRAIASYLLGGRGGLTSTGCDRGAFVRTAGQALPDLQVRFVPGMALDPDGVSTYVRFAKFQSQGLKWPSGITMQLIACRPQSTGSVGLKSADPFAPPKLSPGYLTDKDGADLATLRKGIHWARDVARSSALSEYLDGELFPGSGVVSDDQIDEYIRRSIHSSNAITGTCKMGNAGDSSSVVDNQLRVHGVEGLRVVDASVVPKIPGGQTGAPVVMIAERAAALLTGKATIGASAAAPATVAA

Question: Which “effect of added co-factor on alkane synthase activity” value (“effect of added co-factor” for short) [1] does the source give for `NC(=O)c1ccc[n+]([C@@H]2O[C@H](COP(=O)([O-])OP(=O)(O)OC[C@H]3O[C@@H](n4cnc5c(N)ncnc54)[C@H](OP(=O)(O)O)[C@@H]3O)[C@@H](O)[C@H]2O)c1` [NADP] here?
Answer: None of them were found to increase the activity

Question: `NC(=O)C1=CN([C@@H]2O[C@H](COP(=O)(O)OP(=O)(O)OC[C@H]3O[C@@H](n4cnc5c(N)ncnc54)[C@H](OP(=O)(O)O)[C@@H]3O)[C@@H](O)[C@H]2O)C=CC1` [NADPH] was tested. Which “effect of added co-factor” value [1] did it give?
Answer: None of them were found to increase the activity

Question: Which “conversion of substrate by the enzyme in presence of a TAG lipase” value ([2]; purified enzyme plus TAG lipase) does the source give for `CCCCCCCCCCCCCCCCC(=O)OCC(COC(=O)CCCCCCCCCCCCCCCC)OC(=O)CCCCCCCCCCCCCCCC` [TAGs, glyceryl triheptadecanoate] here?
Answer: production of hydrocarbons is observed

Question: And the “conversion of substrate by the enzyme (product formed)” value (from here on “conversion … (product formed)”) [2]?
Answer: cannot use TAGs (triacylglycerol) directly as substrate

Question: For `O=C(O)CCCCCCCCCCCCCCCO` [16-OH palmitic acid], which “conversion … (product formed)” value [2] is on record?
Answer: production of pentadecanol

Question: Which “effect of added co-factor” value [1] does the source give for `Nc1ncnc2c1ncn2[C@@H]1O[C@H](COP(=O)(O)OP(=O)(O)OP(=O)(O)O)[C@@H](O)[C@H]1O` [ATP] here?
Answer: None of them were found to increase the activity

Question: With `[2H]C([2H])([2H])C([2H])([2H])C([2H])([2H])C([2H])([2H])C([2H])([2H])C([2H])([2H])C([2H])([2H])C([2H])([2H])C([2H])([2H])C([2H])([2H])C([2H])([2H])C([2H])([2H])C([2H])([2H])C([2H])([2H])C([2H])([2H])C(=O)O` [Deuterated palmitic acid, perdeuterated (D31) palmitic acid] as the compound, how does the “formation of labelled pentadecane from labelled substrate” value ([1]; Chlorella cell homogenate, overnight incubation in sealed vial) read?
Answer: labelled pentadecane could be detected

Question: For `CCCCCCCCCCCCCCC[13C](=O)O` [1-^13C-palmitate, reference compound], which “co-product released from labelled substrate” value [3] is on record?
Answer: production of ^13CO2

Question: With `CC(C)CCCC(C)CCCC(C)CCCC(C)CC(=O)O` (stereo not drawn) [Phytanic acid, 3,7,11,15-tetramethylhexadecanoic acid] as the compound, how does the “conversion … (product formed)” value [2] read?
Answer: converted into branched alkanes
